From patent publication US10732171B2, “Human skin sample methods and models for validating hypotheses for mechanisms driving skin pigmentation” (The Procter & Gamble Company, priority 2011, dated 2020) come the findings set out here.

Assay [1] relates to tone genes of interest. Kind of assay: ex-vivo tissue culture exposed to compounds known to stimulate the pigmentation pathway, tone gene regulation. Type of assay: cell-based, human. To be noted: p≤0.1, minimum of 2-10 experiments each.
The test system of assay [2] is 9 epidermal tone genes. Kind of assay: endogenously driven ex-vivo human skin tissue, regulation of tone genes (mRNA/PCR) vs untreated control. Format: cell-based. The settings on record: number of epidermal genes regulated, endogenously driven tissue sample, 37° C. and 70% humidity, 2-10 experiments each. Here is the method:
Referring to FIGS. 11 to 15, examples are shown for the regulation of the 9 epidermal tone genes against an untreated control in an endogenously driven ex-vivo tissue system at 37° C. and 70% humidity for niacinamide, hexamidine, N-Acetyl glucosamine, kojic acid, tranexamic acid, and undecylenoyl phenylalanine (2-10 experiments each). […] For instance, out of the 9 epidermal genes, at least one compound (Hexamidine) regulated 9 genes (with a statistical significance of p<0.1 or better) while two compounds regulated 5 or fewer genes (with a p<0.1 or better). Table 1 below summarizes the number of epidermal genes regulated by certain materials in an endogenously driven tissue sample with a statistical significance of p≤0.1.
Culturing involved setting up culture plates: putting 2.5 ml of media or treatment into each well of a 6-well tissue plate, adding one Millicell culture insert to each well, and putting 100 μl of 1×DMEM on the center of each insert membrane. Squares were selected randomly placed into each of the inserts (one piece of skin per insert), on top of the media on the membrane. The plates were stored at either 33° C. (though an additional non-limiting example would be 37° C. depending on the experiment endpoint). […]
Culture and treatment of the model comprised replicates of n=5 (though replicates of additional quantities may be used such as n=6). […]

Assay [3] has as its system 9 epidermal tone genes. Kind of assay: Stem Cell Factor/Endothelin 1 driven ex-vivo human skin tissue, regulation of tone genes vs untreated control. Format: cell-based. To be noted: number of the 9 epidermal genes regulated, Stem Cell Factor/Endothelin 1 driven tissue sample, 37° C. and 70% humidity. Here is the method:
Referring to FIGS. 19 to 23, examples (of 2-10 experiments each) are shown for the regulation of the 9 epidermal tone genes against an untreated control in ex-vivo tissue driven by the combination of Stem Cell Factor and Endothelin at 37° C. and 70% humidity for niacinamide, hexamidine, N-Acetyl glucosamine, kojic acid, tranexamic acid, and undecylenoyl phenylalanine. […] For instance, out of the 9 epidermal genes, at least one compound (undecylenoyl phenylalanine) regulated 5 genes (with a statistical significance of p<0.1 or better) while two compounds regulated 2 or fewer genes (with a p<0.1 or better). Table 2 below summarizes the number of epidermal genes regulated by certain materials in a Stem Cell Factor/Endothelin 1 driven tissue sample with a statistical significance of p≤0.1.
In example embodiments, tone is driven by application of stem cell factor and/or endothelin (with skin preparation, culturing, and mRNA processing being completed as previously described). In an example embodiment, skin samples are placed within 6-well plates, with 2.5 ml of media per well. A concentration of eighty nanograms per milliliter of stem cell factor as well as eighty nanograms per milliliter of endothelin was applied to tissue in the wells, with the media being refreshed daily. The culture was maintained for seven days. […]

Assay [4] deals with facial skin tone (spots, melanin evenness). Nature of the assay: 9-week clinical study, randomized, double-blind, vehicle-controlled, split-face. Format: in vivo, human. The text has this:
For example, hexyldecanol was compared to vehicle controls and positive controls (5% Niacinamide+1% undecylenoyl phenylalanine) through a 9-week period. Specifically the trial included a 9-week clinical study with a randomized, double-blind, round robin, vehicle-controlled, split-face design, including one week normalization period whereby 330 subjects received test product.

Assay [5] concerns tone genes. Kind of assay: Human Ex-vivo Pre-Clinical Model, fold regulation changes by clinical formulations. Type of assay: cell-based. The settings on record: FIGS. 25a and 25b. Here is the method: FIGS. 25a and 25b show two respective tables showing ex-vivo model fold regulation changes indicating significant down-regulation by clinical formulations in the Human Ex-vivo Pre-Clinical Model.
(§1) The ex-vivo screening method has provided identification of agents consistent with in-vitro studies and which have proven positive clinically. One such example is hexyldecanol. […] For example, total melanin assays were performed using a rat melanoma line known to produce melanin. […] Therefore, promising tone agents such as hexyldecanol identified from the in-vitro model and the ex-vivo model have been tested in clinical settings.

In assay [6] the test system is rat melanoma line known to produce melanin. Kind of assay: total melanin assay in melanoma cell culture. The settings on record: rat melanoma cell cultures; compared to controls. Format: cell-based. Here is the method:
as §1

Consider “Stem Cell Factor: compound known to stimulate the pigmentation pathway; paracrine agent”, for which, in assay [1], the “regulation of tone genes of interest” value is on record as “up regulate one or more tone genes of interest”.
Regarding tranexamic acid, in assay [2], the “# Genes (out of 9) with p ≤ 0.1” value was 7. Further, the “# of Genes with p ≤ 0.1” value in assay [3] is given as 3.
On to `CCCCCCCCC(CO)CCCCCC` (stereo not drawn) [Hexyldecanol, hexyldecanol], for which the “overall comparison to vehicle” value in assay [4] (significant if p<0.10 (1-sided) vs. vehicle) is on record as “statistically better than vehicle controls”. Besides, in assay [4] (versus vehicle control), the melanin evenness entry is given as “significantly different from controls” and the “spot area fraction (total area of spots per face)” value is on record as “decreased versus the control group”. For the same compound, the “gene regulation in ex-vivo model” value in assay [5] was “down-regulation”. In assay [6], the total melanin produced entry is “decreased total melanin”.
As to α-MSH [reference compound], the “regulation of tone genes of interest” value in assay [1] is reported as “up regulate one or more tone genes of interest”.
